Laboratory results: patent publication US20220031684A1, “PROPHYLACTIC EFFICACY OF SEROTONIN 4 RECEPTOR AGONISTS AGAINST STRESS” (THE TRUSTEES OF COLUMBIA UNIVERSITY IN THE CITY OF NEW YORK, priority 2019, published 2022)

What was measured:
129S6/SvEv mice [1] = experiment: Forced swim test (FST) after CFC; format: in vivo
Experimental: (§1) This chronic CORT elevation dysregulates the hypothalamic-pituitary-adrenal axis (HPA) in a manner similar to that observed in clinical depression. The dose and duration of CORT treatment was selected based on previous studies. CORT (35 μg/ml, equivalent to about 5 mg/kg/day) dissolved in 0.45% hydroxypropyl-o-cyclodextrin (0-CD) or vehicle (VEH) (0.45% j-CD) was available ad libitum in the drinking water in opaque bottles to protect it from light. VEH- and CORT-treated water was changed every 3 days to prevent possible degradation. Contextual Fear Conditioning (CFC): A 3-shock CFC procedure was administered as previously published. Briefly, mice were placed into context A and administered 3 2-s shocks (0.75 mA) at 180 s, 240 s or 300 s following placement into context A. Mice were removed from the context 15 s following the termination of shock (at 317 s). For context retrieval, mice were placed back into context A for 300 s. Electrophysiology: Electrophysiology was conducted as previously described. Statistical Analysis: Results from data analyses are expressed as means±SEM. Alpha was set to 0.05 for all analyses. Data were analyzed using GraphPad Prism v7.0 or v8.0. For all experiments, unless otherwise noted, one- or two-way ANOVAs with repeated-measures were applied to the data as appropriate. Significant main effects and/or interactions were followed by Fisher's PLSD post hoc analysis or unpaired t-tests. Drugs: All drugs were prepared in physiological saline and all injections were administered intraperitoneally (i.p.) in volumes of 0.1 cc per […] body weight unless otherwise noted. Fluoxetine hydrochloride (Flx): Flx (BioTrend Chemicals AG, BG197, Zurich, Germany) was administered in the drinking water (18 mg/kg/day) for 3 weeks before the start of CORT. […] (R,S)-ketamine (K): (R,S)-ketamine (Ketaset III, Ketamine HCl injection, Fort Dodge Animal Health, Fort Dodge, Iowa) was administered in a single dose at 30 mg/kg of body weight 1 week before the start of CFC. […] PF-04995274: PF-04995274 (Sigma, Catalog No. 1331782-27-4, St. Louis, Mo.) was administered a single dose at 3 or 10 mg/kg of body weight 1 week before the start of CFC. PF-04995274 was dissolved in saline using an ultrasonic homogenizer (BioLogics, Model 3000, Manassas, Va.). Osmotic minipump implantation: ALZET osmotic minipumps (Model 2004, […], 28 days) were implanted subcutaneously under isoflurane anesthesia as previously described [S2]. Osmotic minipumps were rotated under the skin two to three times per week. Behavioral Assays: All experiments were approved by the Institutional Animal Care and Use Committee (IACUC) at the New York Psychiatric Institute (NYSPI). Elevated Plus Maze (EPM): Testing was performed as previously described [S3]. Briefly, the maze is a plus-cross-shaped apparatus consisting of four arms, two open and two enclosed by walls, linked by a central platform at a height of 50 cm from the floor. Mice were individually placed in the center of the maze facing an open arm and were allowed to explore the maze for 5 min. The time spent in and the number of entries into the open arms was used as an anxiety index. Videos were scored using ANY-maze behavior tracking software (Stoelting, Wood Dale, Ill.). Novelty-Suppressed Feeding: The NSF is a conflict test that elicits competing motivations: the drive to eat and the fear of venturing into the center of a brightly lit arena. The latency to feed is used as an index of anxiety-like behavior, because classical anxiolytic drugs decrease this measure. The NSF test was carried out during an 8 min period as previously described [S3]. Briefly, the testing apparatus consisted of a plastic box (50×50×20 cm), the floor of which was covered with approximately 2 cm of bedding. For 129S6/SvEv experiments, mice were food restricted for 12 h. For the C57BL/6N experiments, mice were food restricted for 24 h. […]

CA3 pyramidal cells = experiment: Whole-cell voltage clamp recordings of spontaneous EPSCs in CA3 slices; format: cell-based, mice; details: (R,S)-ketamine 30 mg/kg or prucalopride 3 mg/kg injected 1 week before slicing
Experimental: as §1

129S6/SvEv mice [2] = experiment: 3-shock contextual fear conditioning (CFC); format: in vivo
Experimental: as §1

BALB/cJRj mice [3] = experiment: Elevated plus maze (EPM), acute anxiolytic-like effect; format: in vivo; details: GR125487 1 mg/kg i.p. 15 min before RS67333 1.5 mg/kg i.p.
Experimental: (§2) RS67333 (1.5 mg/kg, i.p.), diazepam (1.5 mg/kg, i.p.), fluoxetine (18 mg/kg, i.p.) were injected 45 min before testing in the Elevated Plus Maze (EPM), the Novelty Suppressed Feeding (NSF) or the Open Field (OF) in three independent cohorts of male BALB/cJRj mice.
(§3) To ensure the selectivity of the anxiolytic-like effects of RS67333, in a new cohort of male BALB/cJRj mice, GR125487 (1.0 mg/kg, i.p.) dissolved in 0.9% NaCl solution, was injected 15 minutes before RS67333 administration (1.5 mg/kg, i.p.). EPM or NSF occurred 45 min after RS67333 administration (A-S1). Behavioral consequences of the co-administration of GR125487+RS67333 were compared to RS67333 alone, diazepam (1.5 mg/kg, i.p.) fluoxetine (18 mg/kg, i.p.) and vehicle groups (0.9% saline solution, i.p.).
(§4) For mPFC drug infusion, two bilateral cannulae (75 μm-diameter silica capillary tubing inserted in 27G stainless steel catheter) were implanted in the mPFC [stereotaxic coordinates in mm from bregma: A=+2.10, L=±0.50, V=−2.60, A, anterior; L, lateral; and V, ventral, according to (A-S10)] under anesthesia (chloral hydrate, 400 mg/kg, i.p.). […] Diazepam (1.5 mg/kg) was used as a positive control.
In a new cohort of male BALB/cJRj mice, p-CPA was administered twice daily (at 0900 and 1700 h) for 3 consecutive days. RS67333 ([…]) and diazepam ([…]) were then intra-mPFC administered 24 h after the final p-CPA administration and behavioral test (EPM) occurred 45 minutes after local infusion.
The EPM is a widely used behavioral assay for rodents and it has been validated to assess the anti-anxiety effects of pharmacological agents (A-S11). This test was performed as described by (A-S1). The maze is a plus-cross-shaped apparatus, with two open arms and two arms closed by walls linked by a central platform 50 cm above the floor. Mice were individually put in the center of the maze facing an open arm and were allowed to explore the maze during 5 min for the behavioral consequences of an acute systemic administration or mPFC infusion and during 6 min for the optogenetic experiments. The time spent in and the numbers of entries into the open arms were used as an anxiety index. All parameters were measured using a videotracker (EPM3C, Bioseb, Vitrolles, France).

BALB/cJRj mice [4] = experiment: Novelty suppressed feeding (NSF), acute anxiolytic-like effect; format: in vivo; details: GR125487 1 mg/kg i.p. 15 min before RS67333 1.5 mg/kg i.p.
Experimental: as §2, §3, §4
The NSF is a conflict test that elicits competing motivations: the drive to eat and the fear of venturing into the center of a brightly lit arena. The latency to begin eating is used as an index of anxiety/depression-like behavior, because classical anxiolytic drugs as well as chronic antidepressants decrease this measure. The NSF test was carried out during a 10 min period as previously described (A-S12). Briefly, the testing apparatus consisted of a plastic box (50×50×20 cm), the floor of which was covered with approximately 2 cm of wooden bedding. Twenty-four hours prior to behavioral testing, all food was removed from the home cage. At the time of testing, a single pellet of food (regular chow) was placed on a white paper platform positioned in the center of the box. Each animal was placed in a corner of the box, and a stopwatch was immediately started. The latency to eat (defined as the mouse sitting on its haunches and biting the pellet with the use of forepaws) was timed. Immediately afterwards, the animal was transferred to its home cage, and the amount of food consumed by the mouse in the subsequent 5 min was measured, serving as a control for change in appetite as a possible confounding factor.

[5] = FIG. 4 cohort, Male, FIG. 4F, RMANOVA, Fisher's LSD
[6] = FIG. 4 cohort, Male, FIG. 4G, ANOVA, Fisher's LSD
[7] = FIG. 4 cohort, Male, FIG. 4C, RMANOVA, Fisher's LSD
[8] = FIG. 4 cohort, Male, FIG. 4D, ANOVA, Fisher's LSD

## CNC1(c2ccccc2Cl)CCCCC1=O (racemic) [(R,S)-ketamine]
129S6/SvEv mice [1]; [5]
  p, FST Day 2 Immobility Time (sec), (R,S)-ketamine (30 mg/kg) vs. PF04995274 (3 mg/kg): 0.4094
  p, FST Day 2 Immobility Time (sec), (R,S)-ketamine (30 mg/kg) vs. PF04995274 (10 mg/kg): 0.3813
  p, FST Day 2 Immobility Time (sec), (R,S)-ketamine (30 mg/kg) vs. Prucalopride (3 mg/kg): 0.8332
  p, FST Day 2 Immobility Time (sec), (R,S)-ketamine (30 mg/kg) vs. Prucalopride (10 mg/kg): 0.1712
  p, FST Day 2 Immobility Time (sec), Saline vs. (R,S)-ketamine (30 mg/kg): 0.0218
129S6/SvEv mice [1]; [6]
  p, FST Day 2 Immobility Time (min 3-6) (sec), (R,S)-ketamine (30 mg/kg) vs. PF04995274 (3 mg/kg): 0.5815
  p, FST Day 2 Immobility Time (min 3-6) (sec), (R,S)-ketamine (30 mg/kg) vs. PF04995274 (10 mg/kg): 0.3207
  p, FST Day 2 Immobility Time (min 3-6) (sec), (R,S)-ketamine (30 mg/kg) vs. Prucalopride (3 mg/kg): 0.8478
  p, FST Day 2 Immobility Time (min 3-6) (sec), (R,S)-ketamine (30 mg/kg) vs. Prucalopride (10 mg/kg): 0.1763
  p, FST Day 2 Immobility Time (min 3-6) (sec), Saline vs. (R,S)-ketamine (30 mg/kg): 0.0330
129S6/SvEv mice [1]; male 129S6/SvEv, (R,S)-ketamine 30, prucalopride 3 or 10, PF-04995274 3 or 10 mg/kg
  immobility, FST day 1: comparable levels of immobility
129S6/SvEv mice [1]; male 129S6/SvEv, single injection 1 week before CFC, 30 mg/kg
  immobility time, FST day 2 vs saline: decreased immobility time
CA3 pyramidal cells
  average EPSC amplitude vs saline: no differences
  large AMPA receptor-mediated bursts of EPSCs: not present
  number of EPSCs vs saline: no differences
129S6/SvEv mice [2]; [7]
  p, CFC Re-exposure Freezing (%), (R,S)-ketamine (30 mg/kg) vs. PF04995274 (3 mg/kg): 0.1027
  p, CFC Re-exposure Freezing (%), (R,S)-ketamine (30 mg/kg) vs. PF04995274 (10 mg/kg): 0.8015
  p, CFC Re-exposure Freezing (%), (R,S)-ketamine (30 mg/kg) vs. Prucalopride (3 mg/kg): 0.1343
  p, CFC Re-exposure Freezing (%), (R,S)-ketamine (30 mg/kg) vs. Prucalopride (10 mg/kg): 0.1023
  p, CFC Re-exposure Freezing (%), Saline vs. (R,S)-ketamine: 0.0448
129S6/SvEv mice [2]; [8]
  p, CFC Re-exposure, (R,S)-ketamine (30 mg/kg) vs. PF04995274 (3 mg/kg): 0.1027
  p, CFC Re-exposure, (R,S)-ketamine (30 mg/kg) vs. PF04995274 (10 mg/kg): 0.8015
  p, CFC Re-exposure, (R,S)-ketamine (30 mg/kg) vs. Prucalopride (3 mg/kg): 0.1343
  p, CFC Re-exposure, (R,S)-ketamine (30 mg/kg) vs. Prucalopride (10 mg/kg): 0.1023
  p, CFC Re-exposure, Saline vs. (R,S)-ketamine: 0.0448
129S6/SvEv mice [2]; male 129S6/SvEv, (R,S)-ketamine 30, prucalopride 3 or 10, PF-04995274 3 or 10 mg/kg, 1 week before CFC, vs saline
  freezing during CFC training: comparable levels of freezing
129S6/SvEv mice [2]; male 129S6/SvEv, single i.p. injection 1 week before CFC, re-exposure 5 days later, 30 mg/kg
  freezing at re-exposure to the training context (learned fear) vs saline: attenuated learned fear

## COc1[nH]c2ccc(F)cc2c1C(=O)OCC1CCN(CCNS(C)(=O)=O)CC1.NS(=O)(=O)O [GR125487, 5-Fluoro-2-methoxy-[1-[2-[(methylsulfonyl)amino]ethyl]-4-piperidinyl]-1H-indole-3-methylcarboxylate sulfamate]
BALB/cJRj mice [3]
  RS67333-induced increase in time and percent time spent in the open arms (EPM): prevented
  RS67333-induced increase of ambulatory distance in the open arms divided by total distance (EPM): prevented
BALB/cJRj mice [4]
  effect of RS67333 on the latency to feed (NSF): occluded
